In ChEMBL document CHEMBL5344472, “Discovery of Alternative Binding Poses through Fragment-Based Identification of DHODH Inhibitors” (ACS Med Chem Lett, 2024):

How the values were obtained:
[1] = biological target: P-gp (ABCB1) (Homo sapiens, UniProt P08183); experiment: Substrate activity at P-gp (unknown origin) assessed as efflux ratio; type: ADME; conditions: not told
[2] = biological target: Dihydroorotate dehydrogenase (quinone), mitochondrial (Homo sapiens, UniProt Q02127); experiment: Inhibition of human DHODH in MOLM-13 AML cells; type: cell-based
[3] = Intrinsic clearance in human liver microsomes; type: ADME, Microsome; conditions: read-out: CLH
[4] = Permeability of compound in MDCK cells; type: ADME, cell-based, Canis lupus familiaris; conditions: dog, read-out: permeability
[5] = Metabolic stability in mouse liver microsome assessed as half life; type: ADME; conditions: liver microsomes
[6] = system: MOLM-13; experiment: Antiproliferative activity in human MOLM-13 AML cells assessed as reduction in cell viability incubated for 72 hrs by CellTiter-Glo assay; conditions: MOLM-13, 72 h
[7] = Metabolic stability in human liver microsome assessed as half life; type: ADME; conditions: liver microsomes
[8] = Microsomal stability in mouse assessed as half-life; type: ADME, Microsome; conditions: microsomes
[9] = Microsomal stability in human assessed as half-life; type: ADME, Microsome; conditions: microsomes
[10] = Plasma protein binding in mouse assessed as free fraction; type: ADME, cell-free; conditions: read-out: PPB
[11] = Oral bioavailability in C57 mouse at 10 mg/kg; type: ADME, organism-based; conditions: in vivo
[12] = Volume of distribution at steady state in C57 mouse at 10 mg/kg, po or 2 mg/kg, iv; type: ADME, organism-based; conditions: in vivo
[13] = Half-life in C57 mouse at 10 mg/kg, po or 2 mg/kg, iv; type: ADME, organism-based; conditions: in vivo
[14] = Plasma protein binding in human assessed as free fraction; type: ADME, cell-free; conditions: read-out: PPB
[15] = Clearance in iv dosed mouse assessed as hepatic blood flow; type: ADME, organism-based; conditions: in vivo

Chain of P-gp (ABCB1) (P08183 whole entry): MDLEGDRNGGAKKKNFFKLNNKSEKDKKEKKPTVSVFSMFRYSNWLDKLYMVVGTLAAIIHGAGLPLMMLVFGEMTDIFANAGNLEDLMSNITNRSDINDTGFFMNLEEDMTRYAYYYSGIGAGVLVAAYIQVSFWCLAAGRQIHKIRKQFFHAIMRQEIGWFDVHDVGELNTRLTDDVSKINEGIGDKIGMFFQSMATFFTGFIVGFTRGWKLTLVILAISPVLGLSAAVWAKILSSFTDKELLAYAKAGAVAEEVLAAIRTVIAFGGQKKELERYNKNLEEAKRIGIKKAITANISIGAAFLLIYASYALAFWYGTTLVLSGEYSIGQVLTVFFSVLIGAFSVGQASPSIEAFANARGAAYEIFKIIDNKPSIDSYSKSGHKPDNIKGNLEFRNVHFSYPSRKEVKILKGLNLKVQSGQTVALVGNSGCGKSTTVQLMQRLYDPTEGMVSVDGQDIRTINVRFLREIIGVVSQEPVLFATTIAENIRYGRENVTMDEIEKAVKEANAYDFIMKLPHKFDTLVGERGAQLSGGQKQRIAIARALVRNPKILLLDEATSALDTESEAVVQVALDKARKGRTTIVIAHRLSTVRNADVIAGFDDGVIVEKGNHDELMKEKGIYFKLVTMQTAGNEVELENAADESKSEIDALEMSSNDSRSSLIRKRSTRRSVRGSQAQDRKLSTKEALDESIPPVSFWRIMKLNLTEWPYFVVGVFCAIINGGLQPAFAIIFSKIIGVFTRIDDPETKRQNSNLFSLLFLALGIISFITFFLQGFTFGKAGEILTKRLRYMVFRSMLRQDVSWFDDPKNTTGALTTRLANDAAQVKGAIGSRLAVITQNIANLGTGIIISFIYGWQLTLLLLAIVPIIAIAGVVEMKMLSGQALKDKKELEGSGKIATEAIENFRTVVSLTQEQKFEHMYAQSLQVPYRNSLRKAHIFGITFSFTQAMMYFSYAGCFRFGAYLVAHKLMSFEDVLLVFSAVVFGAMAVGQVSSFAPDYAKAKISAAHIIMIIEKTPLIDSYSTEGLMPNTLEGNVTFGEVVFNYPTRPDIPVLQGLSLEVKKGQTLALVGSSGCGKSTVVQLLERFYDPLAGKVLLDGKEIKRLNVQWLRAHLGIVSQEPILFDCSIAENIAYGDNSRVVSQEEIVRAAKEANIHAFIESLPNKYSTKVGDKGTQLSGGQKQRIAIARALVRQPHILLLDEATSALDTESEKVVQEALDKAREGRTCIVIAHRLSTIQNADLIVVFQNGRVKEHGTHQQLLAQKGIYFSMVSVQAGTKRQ
Chain of Dihydroorotate dehydrogenase (quinone), mitochondrial (Q02127 whole entry): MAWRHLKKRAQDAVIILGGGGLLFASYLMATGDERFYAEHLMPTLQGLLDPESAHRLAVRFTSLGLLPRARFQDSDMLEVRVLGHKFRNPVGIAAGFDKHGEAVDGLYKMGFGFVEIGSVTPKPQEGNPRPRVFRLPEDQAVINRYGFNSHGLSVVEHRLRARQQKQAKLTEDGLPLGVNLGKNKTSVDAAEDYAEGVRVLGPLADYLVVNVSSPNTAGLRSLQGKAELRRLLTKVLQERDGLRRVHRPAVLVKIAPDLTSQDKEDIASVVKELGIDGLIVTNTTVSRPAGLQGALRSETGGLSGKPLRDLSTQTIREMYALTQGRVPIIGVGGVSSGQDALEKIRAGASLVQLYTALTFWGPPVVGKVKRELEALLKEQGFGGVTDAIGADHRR

Compound | half-life [5] [min] | IC50 [6] [nM] | half-life [7] [min] | other results
CCn1c(CO)nn(-c2nc(O[C@@H](C)C(F)(F)F)c(C(=O)Nc3c(F)cccc3Cl)cc2F)c1=O |  |  |  | efflux ratio [1]: > 30; IC50 [2]: 0.24 nM
CCn1c(CO)nn(-c2nc(O[C@@H](C)C(F)(F)F)c(C(=O)Nc3c(C)cnc(OC)c3Cl)cc2F)c1=O |  |  |  | CLint scaled [3]: < 7.7 mL/min/kg; efflux ratio [1]: > 30; Papp [4]: 27 ×10⁻⁶ cm/s
C[C@H](Oc1cc(NC(=O)N2CC(CO)C2)c(F)cc1C(=O)Nc1c(F)cccc1Cl)C(F)(F)F | 178 | 430 | 142 | 
CCNC(=O)Nc1cc(O[C@@H](C)C(F)(F)F)c(C(=O)Nc2c(F)cccc2Cl)cc1F |  | 53 |  | 
CC(=O)Nc1cc(O[C@@H](C)C(F)(F)F)c(C(=O)Nc2c(F)cccc2Cl)cc1F |  | 370 |  | 
CCCC(=O)Nc1cc(O[C@@H](C)C(F)(F)F)c(C(=O)Nc2c(F)cccc2Cl)cc1F |  | 46 |  | half-life [8]: < 4 min; half-life [9]: 31 min
COCC1CCCN1C(=O)Nc1cc(O[C@@H](C)C(F)(F)F)c(C(=O)Nc2c(F)cccc2Cl)cc1F (stereo partly specified) |  | 11 |  | 
CCC(CC)C(=O)Nc1cc(O[C@@H](C)C(F)(F)F)c(C(=O)Nc2c(F)cccc2Cl)cc1F |  | 53 |  | 
C[C@H](Oc1cc(NC(=O)N(C)C)c(F)cc1C(=O)Nc1c(F)cccc1Cl)C(F)(F)F | < 4 | 2 | 22 | 
CCN(C(=O)Nc1cc(O[C@@H](C)C(F)(F)F)c(C(=O)Nc2c(F)cccc2Cl)cc1F)C1CC1 | 20 | 1 | 50 | 
C[C@H](Oc1cc(NC(=O)N2CCCC2)c(F)cc1C(=O)Nc1c(F)cccc1Cl)C(F)(F)F |  | 1.3 |  | 
CCN(C)C(=O)Nc1cc(O[C@@H](C)C(F)(F)F)c(C(=O)Nc2c(F)cccc2Cl)cc1F | < 4 | 0.82 | 21 | 
CCN(CC)C(=O)Nc1cc(O[C@@H](C)C(F)(F)F)c(C(=O)Nc2c(F)cccc2Cl)cc1F | 12 | 0.63 | 26 | 
CC/C(=C\CO)C(=O)Nc1cc(O[C@@H](C)C(F)(F)F)c(C(=O)Nc2c(F)cccc2Cl)cc1F |  | 64 |  | 
C[C@H](Oc1cc(NC(=O)C2CC2)c(F)cc1C(=O)Nc1c(F)cccc1Cl)C(F)(F)F |  | 55 |  | 
CCC(CCO)C(=O)Nc1cc(O[C@@H](C)C(F)(F)F)c(C(=O)Nc2c(F)cccc2Cl)cc1F (stereo partly specified) |  | 206 |  | 
C[C@H](Oc1cc(NC(=O)N2CCC(F)(F)C2)c(F)cc1C(=O)Nc1c(F)cccc1Cl)C(F)(F)F |  | 4.3 |  | 
CCC(=O)Nc1cc(O[C@@H](C)C(F)(F)F)c(C(=O)Nc2c(F)cccc2Cl)cc1F |  | 35 |  | 
CCN(CC)C(=O)N(C)c1cc(O[C@@H](C)C(F)(F)F)c(C(=O)Nc2c(F)cccc2Cl)cc1F | < 4 | 25 | < 4 | 
C[C@H](Oc1cc(NC(=O)N2CCCC2CO)c(F)cc1C(=O)Nc1c(F)cccc1Cl)C(F)(F)F (mixture of isomers) | 45 | 1.5 | 56 | 
C[C@H](Oc1cc(NC(=O)N2CCC2CO)c(F)cc1C(=O)Nc1c(F)cccc1Cl)C(F)(F)F (mixture of isomers) | 15 | 1.6 | 28 | 
C[C@H](Oc1cc(NC(=O)N2C(=O)CCC2CO)c(F)cc1C(=O)Nc1c(F)cccc1Cl)C(F)(F)F (mixture of isomers) | 106 | 0.92 | 62 | fraction unbound [10]: 0.007; bioavailability [11]: > 100%; Vdss [12]: 3.6 L/kg; half-life [13]: 180 min; fraction unbound [14]: 0.012; QH [15]: ~ 20%
